In US20250228835A1, “PYRIDINYLOXYPYRIDINES AND RELATED COMPOUNDS AND THEIR USE IN TREATING MEDICAL CONDITIONS” (Rectify Pharmaceuticals, Inc., priority 2024, published 2025):

Legend:
Assay type in all cases: cell-based
ABCA4 P1380L = molecular target: T1, ABCA4 P1380L (Homo sapiens, UniProt P78363, P1380L); experiment: A4 correction dose-response assay: ABCA4 P1380L HiBit protein expression; conditions: HEK-293 cells stably expressing HiBit-tagged ABCA4 P1380L; 24 h treatment; top concentration 30 μM; read-out: ABCA4 P1380L EC50, Emax
T1 construct: expressed in transfected cells
How it was run: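 Cells transfected with HiBit-tagged human ABCA4 P1380L cDNA were treated for 24 h at 37°C with an eleven-point dilution series (top final 30 μM, 0.3% DMSO).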

ABCB4 WT = molecular target: T2, ABCB4 WT (Homo sapiens, UniProt P21439); experiment: ABCB4 WT assay: HiBit protein expression; conditions: HEK-293 cells stably expressing HiBit-tagged ABCB4 WT; 24 h treatment; top concentration 30 μM; read-out: ABCB4 WT EC50, Emax
T2 construct: expressed in transfected cells
How it was run: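 HEK-293 cells stably expressing HiBit-tagged human ABCB4 WT, treated 24 h at 37 °C with 11-dose 3-fold dilutions, top final 30 μM in 0.3% DMSO. HiBit lytic reagent luminescence read after 1 h at 25 °C; Emax and EC50 derived.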

ABCD2 WT = molecular target: T3, ABCD2 WT (Homo sapiens, UniProt Q9UBJ2); experiment: D2 correction dose-response assay: ABCD2 WT HiBit protein expression; conditions: HEK-293/ABCD2 WT cells, 24 hours treatment, HiBit luminescence; class combines EC50 and Mean MaxAct (fold); read-out: ABCD2 WT EC50, Emax
T3 construct: expressed in transfected cells
T3 sequence (Q9UBJ2 1-740): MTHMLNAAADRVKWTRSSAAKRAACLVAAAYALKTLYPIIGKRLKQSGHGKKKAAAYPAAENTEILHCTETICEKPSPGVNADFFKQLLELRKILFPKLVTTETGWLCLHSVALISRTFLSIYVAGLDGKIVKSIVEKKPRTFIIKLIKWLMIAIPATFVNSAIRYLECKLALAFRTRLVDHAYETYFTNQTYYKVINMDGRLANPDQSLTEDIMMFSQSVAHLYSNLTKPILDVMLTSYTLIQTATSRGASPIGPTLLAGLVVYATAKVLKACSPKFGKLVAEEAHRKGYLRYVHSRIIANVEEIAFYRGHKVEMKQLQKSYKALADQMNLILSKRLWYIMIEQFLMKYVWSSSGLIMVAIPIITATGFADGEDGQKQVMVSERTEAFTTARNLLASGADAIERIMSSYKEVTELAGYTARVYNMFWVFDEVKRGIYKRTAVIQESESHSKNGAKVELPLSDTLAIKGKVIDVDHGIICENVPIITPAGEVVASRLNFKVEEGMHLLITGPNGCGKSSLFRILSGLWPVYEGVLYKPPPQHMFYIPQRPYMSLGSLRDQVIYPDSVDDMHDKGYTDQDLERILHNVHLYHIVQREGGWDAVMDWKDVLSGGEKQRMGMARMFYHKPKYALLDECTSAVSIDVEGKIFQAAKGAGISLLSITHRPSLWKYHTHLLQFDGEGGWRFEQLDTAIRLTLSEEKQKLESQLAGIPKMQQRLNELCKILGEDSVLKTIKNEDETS
Protocol: Exemplary compounds were evaluated in a D2 correction dose-response assay.
To assess activity against ABCD2, the compounds were screened in an assay measuring protein expression, using cells transfected with cDNA encoding HiBit-tagged ABCD2 wild-type. Here we describe an assay for measuring the expression of the wild type of human ABCD2 (henceforth referred to as ABCD2 WT) and the use of this assay to measure the efficacy of compounds to increase the expression of ABCD2 WT. The assay was designed to characterize the efficacy and potency of compounds to increase the expression of ABCD2 WT by calculating an Emax and EC50 value. HEK-293 cells stably expressing ABCD2 WT (HEK-293/ABCD2 WT) were used for this assay and were maintained at 37° C. (5% CO2, humidified) in Dulbecco's Modified Eagle Medium (DMEM, Gibco product #12100) supplemented with 10% fetal bovine serum (Biosera product #FB-1058/500), 1% PenStrep (HDB product #15140-122), and 0.5 mg/mL puromycin (Gibco product #A11138-03). For the assay, the HEK-293/ABCD2 WT cells were seeded in white/opaque 384-well plates (Corning product #3570) at 10,000 cells/well in 20 μl growth medium and allowed to settle for 4 hours at 37° C. (5% CO2, humidified). Compound serial dilutions are prepared in DMSO as three hundred times (333×) the final concentration and using a dilution factor of 3 using Bravo (Agilent). After the four-hour incubation period, 60 nL of DMSO solutions are transferred to the assay plate.
Dose response curves include eleven doses with the top final concentration at 30 μM in 0.3% DMSO. Liquid handling is performed with ECHO 550 Acoustic Liquid Handler (Labcyte). After addition of compound treatment, cells are incubated for 24 hours at 37° C. (5% CO2, humidified). After the 24-hour treatment, plates are allowed to equilibrate to room temperature for 10 minutes. Using Dragonfly Automated Liquid Handler (TTP LabTech), 20 μl of HiBit lytic assay reagent (Promega, product #N3040), which is prepared according to manufacturer's instructions, is added to each well. The plates are rotated at room temperature for 2 minutes and incubated for 1 hour at 25° C. before luminescent signal is acquired using an EnVision Multimode Plate Reader (PerkinElmer).

T1 sequence (P78363 whole entry P1380L): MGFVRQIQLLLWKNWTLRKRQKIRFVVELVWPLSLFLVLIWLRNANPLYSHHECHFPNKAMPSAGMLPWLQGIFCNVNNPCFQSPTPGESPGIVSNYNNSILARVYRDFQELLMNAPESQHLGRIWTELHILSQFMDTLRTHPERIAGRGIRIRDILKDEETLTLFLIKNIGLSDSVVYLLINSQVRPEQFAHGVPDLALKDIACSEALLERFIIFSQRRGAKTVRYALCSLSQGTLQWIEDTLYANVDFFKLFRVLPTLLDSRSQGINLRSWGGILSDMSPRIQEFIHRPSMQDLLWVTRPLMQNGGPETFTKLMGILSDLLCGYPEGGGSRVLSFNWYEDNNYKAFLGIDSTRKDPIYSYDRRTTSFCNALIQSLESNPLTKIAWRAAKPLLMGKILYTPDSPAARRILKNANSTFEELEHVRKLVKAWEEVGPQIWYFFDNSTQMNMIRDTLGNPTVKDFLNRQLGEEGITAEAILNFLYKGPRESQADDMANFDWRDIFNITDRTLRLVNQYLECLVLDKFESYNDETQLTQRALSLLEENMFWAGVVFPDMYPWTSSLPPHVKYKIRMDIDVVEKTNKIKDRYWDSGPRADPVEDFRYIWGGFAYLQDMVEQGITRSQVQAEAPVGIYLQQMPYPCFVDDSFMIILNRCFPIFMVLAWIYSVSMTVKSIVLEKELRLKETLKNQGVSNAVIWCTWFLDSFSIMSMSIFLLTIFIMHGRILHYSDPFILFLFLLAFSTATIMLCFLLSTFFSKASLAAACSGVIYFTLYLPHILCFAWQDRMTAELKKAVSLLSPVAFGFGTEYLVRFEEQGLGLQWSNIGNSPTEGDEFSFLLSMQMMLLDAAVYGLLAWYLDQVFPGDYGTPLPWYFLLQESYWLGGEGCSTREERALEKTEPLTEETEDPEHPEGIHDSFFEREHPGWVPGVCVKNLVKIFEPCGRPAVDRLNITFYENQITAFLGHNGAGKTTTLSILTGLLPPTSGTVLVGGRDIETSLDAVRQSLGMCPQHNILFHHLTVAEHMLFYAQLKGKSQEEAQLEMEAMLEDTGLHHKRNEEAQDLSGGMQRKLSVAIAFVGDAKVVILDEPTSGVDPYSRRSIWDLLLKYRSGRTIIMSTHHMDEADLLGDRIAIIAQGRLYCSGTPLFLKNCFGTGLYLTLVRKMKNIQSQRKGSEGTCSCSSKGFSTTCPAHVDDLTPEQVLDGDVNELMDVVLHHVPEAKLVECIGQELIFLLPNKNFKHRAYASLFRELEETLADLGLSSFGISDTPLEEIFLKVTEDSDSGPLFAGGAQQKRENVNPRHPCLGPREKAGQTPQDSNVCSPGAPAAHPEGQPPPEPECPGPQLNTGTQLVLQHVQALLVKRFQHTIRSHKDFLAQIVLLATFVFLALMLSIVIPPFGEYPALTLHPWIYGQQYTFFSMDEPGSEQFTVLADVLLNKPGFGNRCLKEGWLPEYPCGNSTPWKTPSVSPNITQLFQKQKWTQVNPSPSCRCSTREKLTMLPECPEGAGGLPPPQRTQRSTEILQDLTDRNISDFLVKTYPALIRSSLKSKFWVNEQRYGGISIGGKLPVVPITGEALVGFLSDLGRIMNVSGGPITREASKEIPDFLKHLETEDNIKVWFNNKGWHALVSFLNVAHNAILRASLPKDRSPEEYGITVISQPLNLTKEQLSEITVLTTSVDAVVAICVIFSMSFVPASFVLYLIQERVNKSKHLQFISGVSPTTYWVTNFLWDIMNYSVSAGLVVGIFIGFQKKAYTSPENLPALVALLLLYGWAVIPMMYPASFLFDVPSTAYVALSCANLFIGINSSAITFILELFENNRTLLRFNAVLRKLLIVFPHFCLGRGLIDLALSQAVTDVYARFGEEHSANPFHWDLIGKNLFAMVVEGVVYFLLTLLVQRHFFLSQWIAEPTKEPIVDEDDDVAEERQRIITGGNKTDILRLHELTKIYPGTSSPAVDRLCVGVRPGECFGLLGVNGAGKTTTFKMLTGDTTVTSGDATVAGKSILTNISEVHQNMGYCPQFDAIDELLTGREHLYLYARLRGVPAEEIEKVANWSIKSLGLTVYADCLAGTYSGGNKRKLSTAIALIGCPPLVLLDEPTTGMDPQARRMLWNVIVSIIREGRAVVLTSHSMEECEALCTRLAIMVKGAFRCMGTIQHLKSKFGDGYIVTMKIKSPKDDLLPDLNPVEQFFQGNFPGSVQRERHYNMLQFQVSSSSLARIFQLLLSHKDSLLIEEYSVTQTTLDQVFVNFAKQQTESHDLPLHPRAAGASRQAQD
T2 sequence (P21439 whole entry): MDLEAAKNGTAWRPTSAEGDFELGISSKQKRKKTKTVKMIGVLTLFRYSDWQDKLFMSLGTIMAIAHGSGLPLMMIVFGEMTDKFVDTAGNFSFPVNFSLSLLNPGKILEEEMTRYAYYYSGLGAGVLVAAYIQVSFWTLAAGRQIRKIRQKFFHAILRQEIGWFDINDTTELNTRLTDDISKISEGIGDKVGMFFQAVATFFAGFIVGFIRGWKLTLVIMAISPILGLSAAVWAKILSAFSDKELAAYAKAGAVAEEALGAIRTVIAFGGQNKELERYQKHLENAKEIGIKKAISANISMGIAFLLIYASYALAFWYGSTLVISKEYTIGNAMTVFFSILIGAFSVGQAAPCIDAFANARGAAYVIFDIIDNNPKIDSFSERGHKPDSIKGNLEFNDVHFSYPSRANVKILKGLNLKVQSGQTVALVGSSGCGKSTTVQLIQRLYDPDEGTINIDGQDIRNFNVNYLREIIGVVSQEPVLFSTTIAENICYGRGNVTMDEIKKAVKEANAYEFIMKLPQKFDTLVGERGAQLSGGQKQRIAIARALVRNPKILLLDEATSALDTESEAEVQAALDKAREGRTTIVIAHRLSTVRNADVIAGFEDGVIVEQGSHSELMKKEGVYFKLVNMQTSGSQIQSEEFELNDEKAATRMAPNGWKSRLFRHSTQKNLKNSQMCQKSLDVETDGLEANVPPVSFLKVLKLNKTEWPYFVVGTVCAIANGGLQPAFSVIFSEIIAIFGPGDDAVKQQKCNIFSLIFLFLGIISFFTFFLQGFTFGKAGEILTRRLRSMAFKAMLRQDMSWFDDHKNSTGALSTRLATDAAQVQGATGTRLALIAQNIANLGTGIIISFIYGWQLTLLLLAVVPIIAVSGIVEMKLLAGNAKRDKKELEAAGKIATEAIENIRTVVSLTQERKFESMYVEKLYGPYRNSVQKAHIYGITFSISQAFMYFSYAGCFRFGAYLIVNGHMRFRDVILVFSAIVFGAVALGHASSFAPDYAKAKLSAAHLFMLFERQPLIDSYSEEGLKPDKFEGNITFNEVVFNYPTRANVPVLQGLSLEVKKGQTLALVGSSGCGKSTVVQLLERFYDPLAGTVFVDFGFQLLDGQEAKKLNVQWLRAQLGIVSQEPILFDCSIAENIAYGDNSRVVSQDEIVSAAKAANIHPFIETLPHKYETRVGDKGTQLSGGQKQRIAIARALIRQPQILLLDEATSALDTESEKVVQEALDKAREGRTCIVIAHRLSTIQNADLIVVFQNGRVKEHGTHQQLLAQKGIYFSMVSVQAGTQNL

Structure (SMILES)	EC50 (ABCA4 P1380L)	EC50 (ABCB4 WT)	EC50 (ABCD2 WT)
Cc1cc(C)c(Oc2nc(-n3cc(C)cn3)ccc2NS(C)(=O)=O)c(C)c1 [Compound I-11]	> 25000 nM	≥ 25000 nM	1000 to 10000 nM
Cc1cc(C)c(Oc2nc(-n3cnc(C)c3)ccc2NS(C)(=O)=O)c(C)c1 [Compound I-12]	> 25000 nM	< 25000 nM	< 1000 nM
Cc1cc(C)c(Oc2nc(-c3cnn(C)c3C)ccc2NS(C)(=O)=O)c(C)c1 [Compound I-13]	1000 to 10000 nM	1000 to 10000 nM	> 25000 nM
Cc1cc(C)c(Oc2nc(-c3cnn(C)c3)ccc2NS(C)(=O)=O)c(C)c1 [Compound I-14]	> 25000 nM	≥ 25000 nM	1000 to 10000 nM
Cc1cc(C)c(Oc2nc(N3CCN(C(=O)C4(C)CC4)CC3)ccc2NS(C)(=O)=O)c(C)c1 [Compound I-15]	1000 to 10000 nM	1000 to 10000 nM	> 25000 nM
COC(=O)N1CCN(c2ccc(NS(C)(=O)=O)c(Oc3c(C)cc(C)cc3C)n2)CC1 [Compound I-16]	> 25000 nM	≥ 25000 nM	10000 to 25000 nM
CC(=O)N1CCN(c2ccc(NS(C)(=O)=O)c(Oc3c(C)cc(C)cc3C)n2)CC1 [Compound I-17]	> 25000 nM	≥ 25000 nM	1000 to 10000 nM
Cc1nc(Oc2nc(-c3cncc(C#N)c3)ccc2NS(C)(=O)=O)c(C)s1 [Compound I-107]	> 25000 nM	≥ 25000 nM	< 1000 nM
Cc1cc(Oc2nc(-c3cncc(C#N)c3)ccc2NS(C)(=O)=O)nn1C [Compound I-113]	< 25000 nM	< 25000 nM	< 25000 nM
Cc1nn(C)c(C)c1Oc1nc(-c2cncc(C#N)c2)ccc1NS(C)(=O)=O [Compound I-115]	< 25000 nM	< 1000 nM	< 1000 nM
Cc1cc(C)c(Oc2nc(-c3cncc(S(C)(=N)=O)c3)ccc2NS(C)(=O)=O)c(C)n1 (stereo not drawn) [Compound I-116]	> 25000 nM	≥ 25000 nM	> 25000 nM
Cc1nc(C2CC2)c(Cl)cc1Oc1nc(-c2cncc(C#N)c2)ccc1NS(C)(=O)=O [Compound I-120]	< 1000 nM	< 25000 nM	1000 to 10000 nM
Cc1cc(Oc2nc(-c3cncc(C#N)c3)ccc2NS(C)(=O)=O)c(C)nc1C1CC1 [Compound I-127]	1000 to 10000 nM	< 1000 nM	> 25000 nM
Cc1cc(OC(F)(F)F)nc(C)c1Oc1nc(-c2cncc(C#N)c2)ccc1NS(C)(=O)=O [Compound I-131]	< 1000 nM	< 1000 nM	< 1000 nM
Cc1cc(OC2CC2)nc(C)c1Oc1nc(-c2cncc(C#N)c2)ccc1NS(C)(=O)=O [Compound I-132]	< 1000 nM	< 1000 nM	< 1000 nM
Cc1nc(C)c(Oc2nc(-c3cncc(C#N)c3)ccc2NS(C)(=O)=O)c(C2CC2)n1 [Compound I-165]	1000 to 10000 nM	1000 to 10000 nM	1000 to 10000 nM
Cc1cc(C)c(Oc2nc(-c3cncc(C#N)c3)ccc2N(C)S(C)(=O)=O)c(C)n1 [Compound I-166]	1000 to 10000 nM	1000 to 10000 nM	1000 to 10000 nM
CNS(=O)(=O)c1ccc(-c2cncc(C#N)c2)nc1Oc1c(C)nc(C(F)(F)F)nc1C [Compound I-167]	1000 to 10000 nM	1000 to 10000 nM	1000 to 10000 nM

Structure (SMILES)	EC50 (ABCA4 P1380L)	EC50 (ABCB4 WT)	EC50 (ABCD2 WT)
CNS(=O)(=O)c1ccc(-c2cncc(C#N)c2)nc1Oc1c(C)cc(C(F)(F)F)nc1C [Compound I-168]	1000 to 10000 nM	1000 to 10000 nM	1000 to 10000 nM
Cc1nc(N2CC(S(C)(=O)=O)C2)nc(C)c1Oc1nc(-c2cncc(C#N)c2)ccc1NS(C)(=O)=O [Compound I-169]	1000 to 10000 nM	1000 to 10000 nM	10000 to 25000 nM
Cc1nc(N2CC(F)(F)C2)nc(C)c1Oc1nc(-c2cncc(C#N)c2)ccc1NS(C)(=O)=O [Compound I-170]	< 1000 nM	< 1000 nM	1000 to 10000 nM
Cc1cc(C2CC2)c(Oc2nc(-c3cncc(C#N)c3)ccc2NS(C)(=O)=O)c(C)n1 [Compound I-171]	< 1000 nM	< 1000 nM	< 1000 nM
Cc1cc(C)c(Oc2nc(-c3cncc(C#N)c3)ccc2NS(=O)(=O)C2(C)CC2)c(C)n1 [Compound I-172]	< 1000 nM	< 1000 nM	> 25000 nM
Cc1nc(C(F)F)nc(C)c1Oc1nc(-c2cncc(C#N)c2)ccc1NS(C)(=O)=O [Compound I-173]	< 1000 nM	< 1000 nM	< 1000 nM
Cc1nc(C2COC2)nc(C)c1Oc1nc(-c2cncc(C#N)c2)ccc1NS(C)(=O)=O [Compound I-174]	1000 to 10000 nM	≥ 25000 nM	1000 to 10000 nM
Cc1nc(C(F)F)nc(C)c1Oc1nc(-c2cncc(Cl)c2)ccc1NS(C)(=O)=O [Compound I-175]	< 1000 nM	< 1000 nM	> 25000 nM
Cc1cc(C)c(Oc2nc(-c3cncc(C#N)c3)ccc2NS(C)(=O)=O)c(OC2CC2)n1 [Compound I-176]	< 1000 nM	< 1000 nM	< 1000 nM
Cc1cc(N2CCC2)nc(C)c1Oc1nc(-c2cncc(C#N)c2)ccc1NS(C)(=O)=O [Compound I-177]	< 1000 nM	< 1000 nM	> 25000 nM
Cc1nc(OC2CC2)c(C(F)(F)F)cc1Oc1nc(-c2cncc(C#N)c2)ccc1NS(C)(=O)=O [Compound I-178]	> 25000 nM	< 1000 nM	1000 to 10000 nM
Cc1nc(C2CC2)c(C(F)F)cc1Oc1nc(-c2cncc(C#N)c2)ccc1NS(C)(=O)=O [Compound I-179]	> 25000 nM	< 1000 nM	< 1000 nM
Cc1cc(N2CC(F)(F)C2)nc(C)c1Oc1nc(-c2cncc(C#N)c2)ccc1NS(C)(=O)=O [Compound I-180]	> 25000 nM	< 1000 nM	> 25000 nM
Cc1nc(C2CCC2)nc(C)c1Oc1nc(-c2cncc(C#N)c2)ccc1NS(C)(=O)=O [Compound I-181]	< 1000 nM	< 1000 nM	> 25000 nM
Cc1cc(Oc2nc(-c3cncc(C#N)c3)ccc2NS(C)(=O)=O)c(C)nc1C(F)(F)F [Compound I-182]	< 1000 nM	< 1000 nM	< 1000 nM
Cc1nc(C2CC2)nc(C)c1Oc1nc(-c2cncc(C#N)c2)ccc1NS(C)(=O)=O [Compound I-183]	< 1000 nM	< 1000 nM	< 1000 nM
Cc1nc(C2CC2)c(C(F)(F)F)cc1Oc1nc(-c2cncc(C#N)c2)ccc1NS(C)(=O)=O [Compound I-184]	< 1000 nM	< 1000 nM	< 1000 nM
Cc1cc(C)c(Oc2nc(-c3cncc(N4CC(F)C4)c3)ccc2NS(C)(=O)=O)c(C)n1 [Compound I-185]	< 1000 nM	< 1000 nM	< 1000 nM
